Data published in ChEMBL document CHEMBL3044651, “Synthesis, fungicidal activity, and structure-activity relationship of spiro-compounds containing macrolactam (macrolactone) and thiadiazoline rings” (J Agric Food Chem, 2010).
In brackets after ≈: the same amount, converted by molar mass.

Key:
Assay type in all cases: functional, organism-based
[1] = test system: Phomopsis asparagi; assay: Antifungal activity against Phomopsis asparagi by mycelium growth rate test
[2] = test system: Rhizoctonia solani; assay: Antifungal activity against Rhizoctonia solani Kuhn by mycelium growth rate test
[3] = test system: Botrytis cinerea; assay: Antifungal activity against Botryotinia fuckeliana by mycelium growth rate test
[4] = test system: Pyricularia oryzae; assay: Antifungal activity against Magnaporthe oryzae by mycelium growth rate test
[5] = test system: Sclerotinia sclerotiorum; assay: Antifungal activity against Sclerotinia sclerotiorum by mycelium growth rate test

Row | SMILES | EC50 [1] | EC50 [2] | EC50 [3] | EC50 [4] | EC50 [5]
1 | O=C1CCCCCCCCCCC2(CCCN1)N=N/C(=N/c1ccccc1)S2 (stereo not given) | 14.2 µg/mL (≈ 35.4 µM) | 42.1 µg/mL (≈ 105 µM) | 5.01 µg/mL (≈ 12.5 µM) | 41.5 µg/mL (≈ 104 µM) | 9.92 µg/mL (≈ 24.8 µM)
2 | Cc1ccccc1/N=C1/N=NC2(CCCCCCCCCCC(=O)NCCC2)S1 (stereo not given) | 73.8 µg/mL (≈ 178 µM) | 125 µg/mL (≈ 301 µM) | 4.21 µg/mL (≈ 10.2 µM) | 78.4 µg/mL (≈ 189 µM) | 375 µg/mL (≈ 905 µM)
3 | Cc1cccc(/N=C2/N=NC3(CCCCCCCCCCC(=O)NCCC3)S2)c1 (stereo not given) | 9.67 µg/mL (≈ 23.3 µM) | 30.7 µg/mL (≈ 74.1 µM) | 6.42 µg/mL (≈ 15.5 µM) | 63.2 µg/mL (≈ 152 µM) | 4.42 µg/mL (≈ 10.7 µM)
4 | Cc1ccc(/N=C2/N=NC3(CCCCCCCCCCC(=O)NCCC3)S2)cc1 (stereo not given) | 14.5 µg/mL (≈ 35 µM) | 71.8 µg/mL (≈ 173 µM) | 25.1 µg/mL (≈ 60.5 µM) | 139 µg/mL (≈ 335 µM) | 34.1 µg/mL (≈ 82.2 µM)
5 | O=C1CCCCCCCCCCC2(CCCN1)N=N/C(=N/c1ccccc1Cl)S2 (stereo not given) | 24.5 µg/mL (≈ 56.3 µM) | 31.8 µg/mL (≈ 73.1 µM) | 14.9 µg/mL (≈ 34.2 µM) | 41.5 µg/mL (≈ 95.4 µM) | 242 µg/mL (≈ 555 µM)
6 | O=C1CCCCCCCCCCC2(CCCN1)N=N/C(=N/c1ccc(Cl)cc1)S2 (stereo not given) | 102 µg/mL (≈ 234 µM) | 39.5 µg/mL (≈ 90.8 µM) | 18.7 µg/mL (≈ 42.9 µM) | 0.054 µg/mL (≈ 0.124 µM) | 48.2 µg/mL (≈ 111 µM)
7 | O=C1CCCCCCCCCCC2(CCCN1)N=N/C(=N/c1ccccc1Br)S2 (stereo not given) | 60.3 µg/mL (≈ 126 µM) | 56.1 µg/mL (≈ 117 µM) | 19.9 µg/mL (≈ 41.4 µM) | 57.6 µg/mL (≈ 120 µM) | 533 µg/mL (≈ 1110 µM)
8 | COc1ccccc1/N=C1/N=NC2(CCCCCCCCCCC(=O)NCCC2)S1 (stereo not given) | 517 µg/mL (≈ 1200 µM) | 37.9 µg/mL (≈ 88 µM) | 21.8 µg/mL (≈ 50.7 µM) | 398 µg/mL (≈ 924 µM) | 21.1 µg/mL (≈ 49 µM)
9 | COc1ccc(/N=C2/N=NC3(CCCCCCCCCCC(=O)NCCC3)S2)cc1 (stereo not given) | 20.6 µg/mL (≈ 47.7 µM) | 93 µg/mL (≈ 216 µM) | 6.47 µg/mL (≈ 15 µM) | 57.8 µg/mL (≈ 134 µM) | 87.2 µg/mL (≈ 203 µM)
10 | Cc1cccc(/N=C2/N=NC3(CCCCCCCCCCC(=O)NCCC3)S2)c1C (stereo not given) | 14.8 µg/mL (≈ 34.6 µM) | 22.4 µg/mL (≈ 52.2 µM) | 22.6 µg/mL (≈ 52.7 µM) | 199 µg/mL (≈ 465 µM) | 36.5 µg/mL (≈ 85.2 µM)
11 | Cc1ccc(/N=C2/N=NC3(CCCCCCCCCCC(=O)NCCC3)S2)c(C)c1 (stereo not given) | 5.26 µg/mL (≈ 12.3 µM) | 26.8 µg/mL (≈ 62.4 µM) | 9.63 µg/mL (≈ 22.5 µM) | 30.9 µg/mL (≈ 72.1 µM) | 55.7 µg/mL (≈ 130 µM)
12 | Cc1ccc(C)c(/N=C2/N=NC3(CCCCCCCCCCC(=O)NCCC3)S2)c1 (stereo not given) | 16.4 µg/mL (≈ 38.3 µM) | 5.62 µg/mL (≈ 13.1 µM) | 18.6 µg/mL (≈ 43.3 µM) | 86.6 µg/mL (≈ 202 µM) | 34.3 µg/mL (≈ 80 µM)
13 | O=C1CCCCCCCCCCC2(CCCN1)N=N/C(=N/c1ccc(Cl)c(Cl)c1)S2 (stereo not given) | 9.02 µg/mL (≈ 19.2 µM) | 36.8 µg/mL (≈ 78.4 µM) | 34.2 µg/mL (≈ 72.9 µM) | 0.72 µg/mL (≈ 1.53 µM) | 15 µg/mL (≈ 32 µM)
14 | O=C1CCCCCCCCCCC2(CCCN1)N=N/C(=N/c1cc(Cl)ccc1Cl)S2 (stereo not given) | 222 µg/mL (≈ 472 µM) | 41.8 µg/mL (≈ 89 µM) | 29.6 µg/mL (≈ 63 µM) | 1.11 µg/mL (≈ 2.36 µM) | 109 µg/mL (≈ 233 µM)
15 | O=C1CCCCCCCCCCC2(CCCN1)N=N/C(=N/c1cccc3ccccc13)S2 (stereo not given) | 46.1 µg/mL (≈ 102 µM) | 17.8 µg/mL (≈ 39.5 µM) | 15.7 µg/mL (≈ 34.9 µM) | 196 µg/mL (≈ 434 µM) | 767 µg/mL (≈ 1700 µM)
16 | O=C1CCCCCCCCCCC2(CCCN1)N=N/C(=N/Cc1ccccc1)S2 (stereo not given) | 21.3 µg/mL (≈ 51.4 µM) | 23.5 µg/mL (≈ 56.7 µM) | 14.4 µg/mL (≈ 34.8 µM) | 117 µg/mL (≈ 282 µM) | 8.32 µg/mL (≈ 20.1 µM)
17 | O=C1CCCCCCCCCCC2(CCCO1)N=N/C(=N/c1ccccc1Cl)S2 (stereo not given) | 116 µg/mL (≈ 267 µM) | 159 µg/mL (≈ 365 µM) | 43.8 µg/mL (≈ 100 µM) | 211 µg/mL (≈ 485 µM) | 169 µg/mL (≈ 388 µM)
18 | O=C1CCCCCCCCCCC2(CCCO1)N=N/C(=N/c1ccc(Cl)cc1)S2 (stereo not given) | 42.5 µg/mL (≈ 97.4 µM) | 126 µg/mL (≈ 290 µM) | 49.9 µg/mL (≈ 115 µM) | 338 µg/mL (≈ 776 µM) | 59.9 µg/mL (≈ 137 µM)
19 | O=C1CCCCCCCCCCC2(CCCO1)N=N/C(=N/c1ccccc1Br)S2 (stereo not given) | 53.5 µg/mL (≈ 111 µM) | 208 µg/mL (≈ 432 µM) | 36.4 µg/mL (≈ 75.8 µM) | 246 µg/mL (≈ 512 µM) | 205 µg/mL (≈ 426 µM)
20 | O=C1CCCCCCCCCCC2(CCCO1)N=N/C(=N/c1ccc(Br)cc1)S2 (stereo not given) | 29.2 µg/mL (≈ 60.8 µM) | 17.1 µg/mL (≈ 35.6 µM) | 49.9 µg/mL (≈ 104 µM) | 338 µg/mL (≈ 704 µM) | 38.3 µg/mL (≈ 79.7 µM)
21 | Cc1ccc(C)c(/N=C2/N=NC3(CCCCCCCCCCC(=O)OCCC3)S2)c1 (stereo not given) | 208 µg/mL (≈ 485 µM) | 422 µg/mL (≈ 982 µM) | 126 µg/mL (≈ 294 µM) | 3120 µg/mL (≈ 7270 µM) | 163 µg/mL (≈ 379 µM)
22 | N#Cc1c(Cl)c(Cl)c(Cl)c(C#N)c1Cl [CHLOROTHALONIL] | 4.35 µg/mL (≈ 16.4 µM) |  |  |  | 0.41 µg/mL (≈ 1.54 µM)
23 | CC(C)OC(=O)C(C(=O)OC(C)C)=C1SCCS1 [ISOPROTHIOLANE] |  |  |  | 7.19 µg/mL (≈ 24.8 µM) | 
24 | Cc1cc(C)nc(Nc2ccccc2)n1 [PYRIMETHANIL] |  |  | 0.14 µg/mL (≈ 0.703 µM) |  | 
25 | CN(C)C(=S)SSC(=S)N(C)C [THIRAM] |  | 0.9 µg/mL (≈ 3.74 µM) |  |  | 
